Experimental data from BindingDB's records for doi:10.1021/ml300471d (Genfit, 2013).

molecular target: T1, Nuclear receptor ROR-alpha (Homo sapiens, UniProt P35398); assay: Partial agonist activity at GST-fussed RORalpha (unknown origin) assessed as recruitment of TIF2-BAP protein after overnight incubation by pull down assay
T1 sequence (P35398 whole entry): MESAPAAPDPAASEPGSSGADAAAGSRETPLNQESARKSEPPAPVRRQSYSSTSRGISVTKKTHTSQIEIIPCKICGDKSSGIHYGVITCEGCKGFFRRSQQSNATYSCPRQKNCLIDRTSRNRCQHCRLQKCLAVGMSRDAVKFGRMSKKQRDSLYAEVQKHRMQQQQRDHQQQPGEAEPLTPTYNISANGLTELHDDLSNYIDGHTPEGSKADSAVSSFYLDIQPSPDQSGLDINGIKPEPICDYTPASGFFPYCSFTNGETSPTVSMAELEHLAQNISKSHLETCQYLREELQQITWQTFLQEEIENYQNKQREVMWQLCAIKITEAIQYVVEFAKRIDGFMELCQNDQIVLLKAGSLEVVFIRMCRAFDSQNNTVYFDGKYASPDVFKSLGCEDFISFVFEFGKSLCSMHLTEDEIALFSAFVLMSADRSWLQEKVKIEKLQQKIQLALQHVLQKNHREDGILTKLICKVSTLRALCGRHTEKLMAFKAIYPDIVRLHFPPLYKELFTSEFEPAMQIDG

EC50, > 30 µM:
CCOC(=O)C1C(CC)=NC(=O)NC1c1ccc(OCc2ccccc2)c(OC)c1 (stereo unspecified)
CCOC(=O)C1C(C)=NC(=O)N(C)C1c1ccc(OCc2ccccc2)c(OC)c1 (stereo unspecified)
CC1=NC(=O)NC(c2ccc(OCc3ccccc3)cc2)C1C(=O)OCC(F)(F)F (stereo unspecified)
COc1cc(C2NC(=O)N=C(C)C2C(=O)OCC(F)(F)F)ccc1OCc1ccccc1 (stereo unspecified)
COc1cc(C2NC(=O)N=C(C)C2C(=O)OCCSC)ccc1OCc1ccccc1 (stereo unspecified)
COc1cc(C2NC(=O)N=C(C)C2C(=O)OCc2ccccc2)ccc1OCc1ccccc1 (stereo unspecified)
